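Cells were grown in 96-well plates and exposed to each compound for 48 hours at five concentrations; endpoints were interpolated linearly between bracketing concentrations, or set to the highest concentration if not reached. GI50 = concentration required for 50% inhibition of growth. At the TGI there is no net growth.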
Legend:
Test in all cases: NCI anticancer screen, dose series, 48 h; in the data active = GI50 below about 0.43 µM; inactive = the rest
SF-539 CNS = tested on: SF-539 CNS
K-562 leukemia = tested on: K-562 leukemia
SK-MEL-5 melanoma = tested on: SK-MEL-5 melanoma
MCF7 breast = tested on: MCF7 breast
HOP-92 NSCLC = tested on: HOP-92 NSCLC
NCI-H23 lung = tested on: NCI-H23 lung
HT29 colon = tested on: HT29 colon
TK-10 renal = tested on: TK-10 renal
MDA-N = tested on: MDA-N
MALME-3M melanoma = tested on: MALME-3M melanoma
UACC-62 melanoma = tested on: UACC-62 melanoma
OVCAR-3 ovarian = tested on: OVCAR-3 ovarian
DMS 114 small cell lung = tested on: DMS 114 small cell lung
U251 CNS = tested on: U251 CNS
PC-3 prostate = tested on: PC-3 prostate
T-47D breast = tested on: T-47D breast
EKVX NSCLC = tested on: EKVX NSCLC
XF 498 CNS = tested on: XF 498 CNS
CAKI-1 renal = tested on: CAKI-1 renal
MDA-MB-231 breast = tested on: MDA-MB-231 breast
OVCAR-5 ovarian = tested on: OVCAR-5 ovarian
SK-MEL-2 melanoma = tested on: SK-MEL-2 melanoma
SF-295 CNS = tested on: SF-295 CNS
OVCAR-8 ovarian = tested on: OVCAR-8 ovarian
RXF 393 renal = tested on: RXF 393 renal
SF-268 CNS = tested on: SF-268 CNS
HL-60(TB) leukemia = tested on: HL-60(TB) leukemia
NCI-H460 lung = tested on: NCI-H460 lung
HS 578T breast = tested on: HS 578T breast
UO-31 renal = tested on: UO-31 renal
IGROV1 ovarian = tested on: IGROV1 ovarian
M19-MEL melanoma = tested on: M19-MEL melanoma
HOP-18 NSCLC = tested on: HOP-18 NSCLC
DMS 273 small cell lung = tested on: DMS 273 small cell lung
KM12 colon = tested on: KM12 colon
SNB-19 CNS = tested on: SNB-19 CNS
HCT-15 colon = tested on: HCT-15 colon
LXFL 529 NSCLC = tested on: LXFL 529 NSCLC
CCRF-CEM leukemia = tested on: CCRF-CEM leukemia
M14 melanoma = tested on: M14 melanoma
LOX IMVI melanoma = tested on: LOX IMVI melanoma
SN12C renal = tested on: SN12C renal
UACC-257 melanoma = tested on: UACC-257 melanoma
BT-549 breast = tested on: BT-549 breast
A549 NSCLC = tested on: A549 NSCLC
OVCAR-4 ovarian = tested on: OVCAR-4 ovarian
HCT-116 colon = tested on: HCT-116 colon
DLD-1 colon = tested on: DLD-1 colon
MDA-MB-435 = tested on: MDA-MB-435
RPMI-8226 leukemia = tested on: RPMI-8226 leukemia
ACHN renal = tested on: ACHN renal
A498 renal = tested on: A498 renal
COLO 205 colon = tested on: COLO 205 colon
SNB-75 CNS = tested on: SNB-75 CNS
NCI/ADR-RES ovarian = tested on: NCI/ADR-RES ovarian
HOP-62 NSCLC = tested on: HOP-62 NSCLC
NCI-H226 lung = tested on: NCI-H226 lung
SK-OV-3 ovarian = tested on: SK-OV-3 ovarian
SW-620 colon = tested on: SW-620 colon
SR leukemia = tested on: SR leukemia
DU-145 prostate = tested on: DU-145 prostate
786-0 renal = tested on: 786-0 renal
MOLT-4 leukemia = tested on: MOLT-4 leukemia
SK-MEL-28 melanoma = tested on: SK-MEL-28 melanoma
NCI-H522 lung = tested on: NCI-H522 lung
HCC-2998 colon = tested on: HCC-2998 colon
KM20L2 colon = tested on: KM20L2 colon

COc1ccc(N2C(=O)[C@H]3[C@H]4CC(C(C)(C)C)CC[C@H]4c4c(n(C)c5ccccc45)[C@H]3C2=O)cc1 (stereo partly specified)
> 86 µM: TGI (HS 578T breast)
> 46.4 µM: TGI (SF-539 CNS) | TGI (MCF7 breast) | TGI (EKVX NSCLC) | TGI (A498 renal)
> 82.4 µM: TGI (NCI-H522 lung)
> 63.8 µM: TGI (NCI-H460 lung)
> 61.3 µM: TGI (KM12 colon)
> 100 µM: TGI (K-562 leukemia) | TGI (SK-MEL-5 melanoma) | TGI (HOP-92 NSCLC) | TGI (NCI-H23 lung) | TGI (HT29 colon) | TGI (TK-10 renal) | TGI (MDA-N) | TGI (MALME-3M melanoma) | TGI (UACC-62 melanoma) | TGI (OVCAR-3 ovarian) | TGI (DMS 114 small cell lung) | TGI (PC-3 prostate) | TGI (T-47D breast) | TGI (XF 498 CNS) | TGI (CAKI-1 renal) | TGI (MDA-MB-231 breast) | TGI (OVCAR-5 ovarian) | TGI (SK-MEL-2 melanoma) | TGI (SF-295 CNS) | TGI (OVCAR-8 ovarian) | TGI (RXF 393 renal) | TGI (SF-268 CNS) | TGI (HL-60(TB) leukemia) | TGI (UO-31 renal) | TGI (IGROV1 ovarian) | TGI (M19-MEL melanoma) | TGI (HOP-18 NSCLC) | TGI (DMS 273 small cell lung) | TGI (SNB-19 CNS) | TGI (LXFL 529 NSCLC) | TGI (CCRF-CEM leukemia) | TGI (M14 melanoma) | TGI (LOX IMVI melanoma) | TGI (UACC-257 melanoma) | TGI (BT-549 breast) | TGI (A549 NSCLC) | TGI (OVCAR-4 ovarian) | TGI (HCT-116 colon) | TGI (DLD-1 colon) | TGI (MDA-MB-435) | TGI (RPMI-8226 leukemia) | TGI (ACHN renal) | TGI (COLO 205 colon) | TGI (SNB-75 CNS) | TGI (NCI/ADR-RES ovarian) | TGI (NCI-H226 lung) | TGI (SK-OV-3 ovarian) | TGI (SW-620 colon) | TGI (SR leukemia) | TGI (DU-145 prostate) | TGI (786-0 renal) | TGI (MOLT-4 leukemia) | TGI (SK-MEL-28 melanoma)
> 5.62 µM: TGI (HOP-62 NSCLC)
> 56.2 µM: TGI (U251 CNS) | TGI (HCT-15 colon) | TGI (SN12C renal) | TGI (HCC-2998 colon)

CC(C)[O-].CC(C)[O-].O=C1C=C([O-])C(=O)c2ccccc21.O=C1C=C([O-])C(=O)c2ccccc21.[Ti+4]
> 79.3 µM: TGI (NCI-H23 lung)
> 91.1 µM: TGI (EKVX NSCLC)
> 100 µM: TGI (SF-539 CNS) | TGI (K-562 leukemia) | TGI (HOP-92 NSCLC) | TGI (HT29 colon) | TGI (TK-10 renal) | TGI (MALME-3M melanoma) | TGI (UACC-62 melanoma) | TGI (OVCAR-3 ovarian) | TGI (U251 CNS) | TGI (XF 498 CNS) | TGI (CAKI-1 renal) | TGI (OVCAR-5 ovarian) | TGI (SF-295 CNS) | TGI (OVCAR-8 ovarian) | TGI (RXF 393 renal) | TGI (SF-268 CNS) | TGI (HL-60(TB) leukemia) | TGI (NCI-H460 lung) | TGI (UO-31 renal) | TGI (IGROV1 ovarian) | TGI (M19-MEL melanoma) | TGI (HOP-18 NSCLC) | TGI (DMS 273 small cell lung) | TGI (KM12 colon) | TGI (SNB-19 CNS) | TGI (HCT-15 colon) | TGI (LXFL 529 NSCLC) | TGI (CCRF-CEM leukemia) | TGI (M14 melanoma) | TGI (LOX IMVI melanoma) | TGI (KM20L2 colon) | TGI (SN12C renal) | TGI (UACC-257 melanoma) | TGI (A549 NSCLC) | TGI (OVCAR-4 ovarian) | TGI (HCT-116 colon) | TGI (DLD-1 colon) | TGI (RPMI-8226 leukemia) | TGI (ACHN renal) | TGI (A498 renal) | TGI (COLO 205 colon) | TGI (SNB-75 CNS) | TGI (HOP-62 NSCLC) | TGI (NCI-H226 lung) | TGI (SK-OV-3 ovarian) | TGI (SW-620 colon) | TGI (786-0 renal) | TGI (MOLT-4 leukemia) | TGI (SK-MEL-28 melanoma) | TGI (NCI-H522 lung) | TGI (HCC-2998 colon)
> 71.2 µM: TGI (SK-MEL-2 melanoma)
> 66.8 µM: TGI (SK-MEL-5 melanoma)
inactive: GI50 (SF-539 CNS) > 100 µM | GI50 (K-562 leukemia) > 89.4 µM | GI50 (SK-MEL-5 melanoma) 6.32 µM | GI50 (HOP-92 NSCLC) > 100 µM | GI50 (NCI-H23 lung) 3.94 µM | GI50 (HT29 colon) 34.9 µM | GI50 (TK-10 renal) > 100 µM | GI50 (MALME-3M melanoma) 14.7 µM | GI50 (UACC-62 melanoma) 17.6 µM | GI50 (OVCAR-3 ovarian) > 70.5 µM | GI50 (U251 CNS) > 68.8 µM | GI50 (EKVX NSCLC) > 44.8 µM | GI50 (XF 498 CNS) > 100 µM | GI50 (CAKI-1 renal) > 91.3 µM | GI50 (OVCAR-5 ovarian) > 100 µM | GI50 (SK-MEL-2 melanoma) 17.2 µM | GI50 (SF-295 CNS) 28.1 µM | GI50 (OVCAR-8 ovarian) > 100 µM | GI50 (RXF 393 renal) > 85.3 µM | GI50 (SF-268 CNS) > 100 µM | GI50 (HL-60(TB) leukemia) 17.4 µM | GI50 (NCI-H460 lung) 15.3 µM | GI50 (UO-31 renal) > 100 µM | GI50 (IGROV1 ovarian) > 100 µM | GI50 (M19-MEL melanoma) 4.42 µM | GI50 (HOP-18 NSCLC) > 86.7 µM | GI50 (DMS 273 small cell lung) 34.9 µM | GI50 (KM12 colon) > 81.4 µM | GI50 (SNB-19 CNS) > 100 µM | GI50 (HCT-15 colon) > 73.4 µM | GI50 (LXFL 529 NSCLC) 80.8 µM | GI50 (CCRF-CEM leukemia) > 73 µM | GI50 (M14 melanoma) 17.8 µM | GI50 (LOX IMVI melanoma) 5.21 µM | GI50 (KM20L2 colon) 44.1 µM | GI50 (SN12C renal) > 100 µM | GI50 (UACC-257 melanoma) 4.97 µM | GI50 (A549 NSCLC) 47.2 µM | GI50 (OVCAR-4 ovarian) > 100 µM | GI50 (HCT-116 colon) 43.7 µM | GI50 (DLD-1 colon) > 100 µM | GI50 (RPMI-8226 leukemia) 19.1 µM | GI50 (ACHN renal) > 85.5 µM | GI50 (A498 renal) > 100 µM | GI50 (COLO 205 colon) 30 µM | GI50 (SNB-75 CNS) 17.5 µM | GI50 (HOP-62 NSCLC) > 100 µM | GI50 (NCI-H226 lung) 63.9 µM | GI50 (SK-OV-3 ovarian) > 100 µM | GI50 (SW-620 colon) 44.2 µM | GI50 (786-0 renal) > 86.4 µM | GI50 (MOLT-4 leukemia) > 100 µM | GI50 (SK-MEL-28 melanoma) > 100 µM | GI50 (NCI-H522 lung) 39.9 µM | GI50 (HCC-2998 colon) > 91.7 µM

— PubChem BioAssay (NCI)
